Measured values as given in PMC9055250, “Design, synthesis, and biological evaluation of new 6,N^2-diaryl-1,3,5-triazine-2,4-diamines as anticancer agents selectively targeting triple negative breast cancer cells” (RSC Advances, 2020).
Read-outs that look alike come from different tables or passages of the source.

Assays:
[1] = test system: SKBR-3 breast cancer cells; test: MTT in vitro cytotoxicity assay, SKBR-3; type: cell-based; settings: Homo sapiens; for viability at 10 µM: SK-BR-3, 10 μM, 72 h, read-out: Cell viability (%) SKBR-3; for GI50: SK-BR-3, 72 h, read-out: GI50 ± SD SKBR-3
Description: (§1) The synthesized compounds were tested against three breast tumor cell lines (MDA-MB231, SKBR-3 and MCF-7) and epithelial breast cell line (MCF-10A) by the MTT colorimetric assay.[29,30] All cells were obtained from the American Type Culture Collection. The cancerous cell lines were grown in Dulbecco's modified eagle medium (DMEM) supplemented with 10% fetal bovine serum (FBS) and 1% pen-strep antibiotic. The MCF-10A human epithelial breast cell line was grown in the complete mammary epithelial growth medium containing horse serum 5%, epithelial growth factor 20 ng mL^−1, hydrocortisone […], cholera toxin 100 ng mL^−1, insulin 10 μg mL^−1, and pen-step antibiotic.[31] For the cytotoxic assay, 20 to 75 × 10^3 cells per mL (based on the doubling time for each cell line) were seeded in 96-well plates and the plates were incubated overnight in a humidified air atmosphere at 37 °C in 5% CO2 incubator.
(§2) The cells were then treated with compounds at different concentrations. After 72 h of incubation, the MTT (0.5 mg mL^−1) was added to wells, followed by 4 h of incubation. The culture medium was then removed and DMSO (100 μL per well) was added and the absorbance values were measured at 570 nm using the multi-well Tecan NanoQuant, Infinite m200 Pro plate reader. Growth inhibitory values (GI50) were calculated using GraphPad Prism 7 (GraphPad Software, San Diego, USA) by nonlinear regression analysis. Three independent experiments were carried out and the data was expressed in mean ± standard deviation (SD). The concentration–response curves used for the GI50 calculation are available in ESI. ^†

[2] = test system: MDA-MB231 breast cancer cells; test: Time-dependent cytotoxicity (MTT); type: cell-based; settings: for inhibition at 0.125 µM / growth inhibition at 125 nM, 12 h: MDA-MB231, 125 nM
Description: MDA-MB231 breast cancer cells were grown in DMEM supplemented with 10% FBS and 1% pen-strep antibiotic. The cells were seeded in 96-well plates (20 × 10^3 cells per mL) and the plates were incubated overnight in a humidified air atmosphere at 37 °C in 5% CO2 incubator. The cells were then treated with compounds 16 or 18 in concentrations ranging from 0.2 nM to 125 nM for 12, 24, 48, and 72 h. After specified time for each experiment, MTT (0.5 mg mL^−1) was added to wells, followed by 4 h of incubation. The culture medium was then removed and DMSO (100 μL per well) was added and the absorbance values were measured at 570 nm using the multi-well Tecan NanoQuant, Infinite m200 Pro plate reader. GI50 values were calculated using GraphPad Prism 7 (GraphPad Software, San Diego, USA) by nonlinear regression analysis. All the time-dependent experiments at different times were carried out using the same passage of MDA-MB231 cells. Three independent experiments were carried out and the data were expressed in mean ± standard deviation (SD).

MDA-MB231 cells [3] = test: Acridine orange/propidium iodide double staining, fluorescence microscopy; type: cell-based; settings: MDA-MB231, 24 h after treatment; 16 at 125 and 250 nM, 18 at 2.5 and 5 nM
Description: Fluorescence microscopy was used to visualize the apoptosis in cancer cells with AO/PI staining.[20] MDA-MB231 cells were grown in 6-well plate (5 × 10^5 cells per well). […] One of the six wells was treated with 1% DMSO and served as a negative control, another well treated with methotrexate served as a positive control. After 24 h of incubation, the wells were washed with phosphate buffered saline (PBS) three times and 100 μL of AO (100 μg mL^−1 in PBS) and 25 μL of PI (100 μg mL^−1 in PBS) in 1 mL of media were added to each well. The plate was then observed under a motorized inverted fluorescent microscope (Eclipse Ti2-E, Nikon). Three independent experiments at each concentration were carried out.

[4] = test system: MCF-10A human epithelial breast cell line; test: MTT in vitro cytotoxicity assay, MCF-10A; type: cell-based; settings: 72 h, read-out: GI50 ± SD MCF-10A
Description: as §1, §2

[5] = test system: MCF-7 breast cancer cells; test: MTT in vitro cytotoxicity assay, MCF-7; type: cell-based; settings: Homo sapiens; for viability at 10 µM: MCF7, 10 μM, 72 h, read-out: Cell viability (%) MCF-7; for GI50: MCF7, 72 h, read-out: GI50 ± SD MCF-7
Description: as §1, §2

[6] = test system: MDA-MB231 breast cancer cells; test: MTT in vitro cytotoxicity assay, MDA-MB231; type: cell-based; settings: for viability at 10 µM / GI50: Homo sapiens, MDA-MB-231; for viability at 10 µM: read-out: Cell viability (%) MDA-MB231
Description: as §1, §2

MDA-MB231 cells [7] = test: Live cell imaging with AO/PI; type: cell-based; settings: MDA-MB231, 10 μM, 4 h
Description: MDA-MB231 cells (1 × 10^6 cells) were seeded in a Petri dish and incubated overnight in a humidified air atmosphere at 37 °C in 5% CO2 incubator. Then, the Petri dish was washed with PBS three times and 300 μL of AO (100 μg mL^−1 in PBS) and 75 μL of PI (100 μg mL^−1 in PBS) in 3 mL of media were added to the Petri dish. The cells were treated with 10 μM of compound 18 and the dish was then transferred to motorized inverted fluorescent microscope (Eclipse Ti2-E, Nikon). The pictures were taken every 10 minutes for 4 h and intercalated into video (see ESI ^†).

[8] = Homo sapiens, MDA-MB-231, 12 h, read-out: growth inhibition at 125 nM, 12 h
[9] = Homo sapiens, MDA-MB-231, MDA-MB231, 72 h, read-out: GI50 ± SD, 72 h
[10] = 72 h, MTT, read-out: GI50 ± SD MDA-MB231
[11] = MDA-MB231, calculated from GI50, read-out: Experimental pGI50 (converted)
[12] = Homo sapiens, MDA-MB-231, MDA-MB231, 24 h, concentration used in Fig. 3

| Compound | viability at 10 µM [1] [%] | GI50 [1] [µM] | inhibition at 0.125 µM [2, 8] [%] | GI50 [2, 9] [µM] | growth inhibition at 125 nM, 12 h ([2]; 12 h) | cell morphology, AO/PI double staining (MDA-MB231 cells [3]) | GI50 [4] [µM] | viability at 10 µM [5] [%] | GI50 [5] [µM] | melting point [°C] | viability at 10 µM ([6]; 72 h, MTT) [%] | GI50 [6, 10] [µM] | GI50 [6, 11] [µM] | other results |
| --- | --- | --- | --- | --- | --- | --- | --- | --- | --- | --- | --- | --- | --- | --- |
| COc1cc(-c2nc(N)nc(Nc3ccc(Cl)cc3)n2)cc(OC)c1OC [Compound 16, N ^2-(4-Chlorophenyl)-6-(3,4,5-trimethoxyphenyl)-1,3,5-triazine-2,4-diamine] | 48 | 0.3 ± 0.04 | 17 | 0.007 ± 0.0006 | no significant inhibition of the cell growth | signs of apoptosis | > 20 | 52 | 12.5 ± 0.2 | 209 to 211 | 20 | 0.007 ± 1e-05 | 0.00708 | inhibition at 0.125 µM ([2]; Homo sapiens, MDA-MB-231, 24 h, read-out: growth inhibition at 125 nM, 24 h): 61%; inhibition at 0.125 µM ([2]; Homo sapiens, MDA-MB-231, 48 h, read-out: growth inhibition at 125 nM, 48 h): 75% |
| COc1cc(-c2nc(N)nc(Nc3ccc(C)cc3)n2)cc(OC)c1OC [Compound 18, N ^2-(4-Methylphenyl)-6-(3,4,5-trimethoxyphenyl)-1,3,5-triazine-2,4-diamine] | 37 | 0.21 ± 0.01 | 15 | 0.001 ± 2e-05 | no significant inhibition of the cell growth | signs of apoptosis | > 20 | 62 | > 20 |  | 14 | 0.001 ± 1e-05 | 0.002 | IC20 [2, 12]: 0.0025 µM; IC50 [2, 12]: 0.005 µM; GI50 ([2]; Homo sapiens, MDA-MB-231, MDA-MB231, 24 h, read-out: GI50 ± SD, 24 h): 0.005 ± 0.0001 µM; GI50 ([2]; Homo sapiens, MDA-MB-231, MDA-MB231, 48 h, read-out: GI50 ± SD, 48 h): 0.004 ± 0.0003 µM; morphological changes in live cell imaging (MDA-MB231 cells [7]): inducing apoptosis; fold more active than methotrexate ([6]; MDA-MB231): 10 fold; fold more potent than nilotinib ([6]; MDA-MB231): 40 fold |
| COc1cc(-c2nc(N)nc(Nc3ccc(OC(F)(F)F)cc3)n2)cc(OC)c1OC [Compound 20, N ^2-(4-(Trifluoromethoxy)phenyl)-6-(3,4,5-trimethoxyphenyl)-1,3,5-triazine-2,4-diamine] | 45 | 5 ± 0.35 |  |  |  |  | > 20 | 51 | > 20 | 179 to 181 | 20 | 1.5 ± 0.1 | 1.48 |  |
| COc1cc(-c2nc(N)nc(Nc3ccc(C(C)C)cc3)n2)cc(OC)c1OC [Compound 21, N ^2-(4-Isopropylphenyl)-6-(3,4,5-trimethoxyphenyl)-1,3,5-triazine-2,4-diamine] | 42 | 1.1 ± 0.05 |  |  |  |  | > 20 | 49 | 10.7 ± 1.1 | 190 to 192 | 9 | 0.04 ± 0.002 | 0.0398 |  |
